Measured values from patent US10533018B2, “Antimicrobial prochelators to target drug-resistant bacteria and methods of making and using the same” (Duke University, priority 2015, dated 2020).

Key:
several strains = settings: concentrations below 1 mM
Source text: [39, 40] […] To control for the impact of copper alone, the cultures of 5 bacterial strains were subjected to a serial dilution of CuCl2. […] [41] To control for the impact of limited Cu, several strains were also challenged with a serial dilution of BCS.

E. coli = type: cell-based; settings: at 52 μM DB4-51
Source text: Further evidence for the influence of bioavailable copper on the IC50 of DB4-51 was obtained by using a checkerboard assay. […] Serial dilutions of DB4-51 in LB were arrayed against dilutions of chelator (BCS and EDTA). The antagonism exists between our prochelator, DB4-51, and the strong, extracellular chelators BCS and EDTA. […] However, at lower concentrations, EDTA works antagonistically with DB4-51 by restoring bacterial growth. This trend further underscores the influence that copper and potentially other metals have on the growth inhibitory activity of DB4-51.

Cc1cc(-c2ccc(S(=O)(=O)O)cc2)c2ccc3c(-c4ccc(S(=O)(=O)O)cc4)cc(C)nc3c2n1 [BCS, bathocuproine disulfonate]
effect on bacterial growth (several strains): did not inhibit bacterial growth
concentration that restored E. coli growth (E. coli): ≥ 125 µM
